Experiment: xn = mol fraction of the nth substance listed
Settings: 101 kPa, Liquid; for viscosity: Capillary tube (Ostwald / Ubbelohde) method; for speed of sound: Frequency=2 MHz, Linear variable-path acoustic interferometer; for mass density: Pycnometric method

CCCCCCC(C)O (stereo not given) [2-octanol] + Cc1ccccc1
Settings | mass density, 298.15 K [kg/m3] | mass density, 308.15 K [kg/m3] | speed of sound, 298.15 K [m/s] | speed of sound, 308.15 K [m/s] | viscosity, 298.15 K [mPa·s] | viscosity, 308.15 K [mPa·s]
x2 = 0 | 817.08 | 809.89 | 1328 | 1292 | 6.429 | 4.365
x2 = 0.0494 | 818.49 | 811.13 | 1323 | 1285 | 5.547 | 3.837
x2 = 0.0991 | 819.89 | 812.4 | 1317 | 1280 | 4.813 | 3.373
x2 = 0.1497 | 821.39 | 813.76 | 1313 | 1274 | 4.186 | 2.975
x2 = 0.1999 | 822.91 | 815.11 | 1306 | 1268 | 3.559 | 2.563
x2 = 0.2511 | 824.47 | 816.48 | 1299 | 1261 | 3.069 | 2.264
x2 = 0.2996 | 826.03 | 817.85 | 1294 | 1257 | 2.652 | 1.986
x2 = 0.354 | 827.83 | 819.46 | 1289 | 1250 | 2.239 | 1.685
x2 = 0.3998 | 829.43 | 820.91 | 1285 | 1247 | 1.966 | 1.488
x2 = 0.4469 | 831.12 | 822.49 | 1279 | 1243 | 1.69 | 1.276
x2 = 0.5 | 833.15 | 824.35 | 1277 | 1239 | 1.462 | 1.121
x2 = 0.5509 | 835.22 | 826.29 | 1273 | 1235 | 1.263 | 1.004
x2 = 0.5995 | 837.33 | 828.32 | 1271 | 1234 | 1.104 | 0.912
x2 = 0.6486 | 839.67 | 830.43 | 1270 | 1232 | 0.947 | 0.836
x2 = 0.701 | 842.33 | 832.94 | 1270 | 1233 | 0.88 | 0.77
x2 = 0.7477 | 844.88 | 835.37 | 1271 | 1234 | 0.791 | 0.707
x2 = 0.7989 | 847.89 | 838.32 | 1273 | 1237 | 0.716 | 0.649
x2 = 0.8513 | 851.18 | 841.6 | 1278 | 1241 | 0.628 | 0.569
x2 = 0.9 | 854.46 | 844.93 | 1286 | 1247 | 0.636 | 0.573
x2 = 0.9511 | 858.12 | 848.66 | 1294 | 1255 | 0.574 | 0.506
